Data published in patent US8563744B2, “3-amino-benzo [D] isothiazole dioxide derivatives and their use as pesticides” (Syngenta Crop Protection, LLC, priority 2008, dated 2013).

What was measured:
Assay type in all cases: in vivo
Myzus persicae [1] = assay: B2: Myzus persicae (green peach aphid), mixed population, feeding/residual contact activity, preventive; conditions: foliar, 144 h, sunflower leaf discs sprayed with test solutions of 200 ppm, aphid population of mixed ages, 6 days incubation, read-out: control of Myzus persicae (mortality)
Procedure: B2: Myzus persicae (green peach aphid) (mixed population, feeding/residual contact activity, preventive)
Sunflower leaf discs are placed on agar in a 24-well microtiter plate and sprayed with test solutions of 200 ppm. After drying, the leaf discs are infested with an aphid population of mixed ages. After an incubation period of 6 days, samples are checked for mortality and special effects (e.g. phytotoxicity).

Myzus persicae [2] = assay: B3: Myzus persicae (green peach aphid), mixed population, systemic/feeding activity, curative; conditions: 144 h, roots of infested pea seedlings placed in test solutions of 24 ppm, 6 days after introduction, read-out: control of Myzus persicae (mortality)
Source text: B3: Myzus persicae (green peach aphid) (mixed population, systemic/feeding activity, curative)
Roots of pea seedlings, infested with an aphid population of mixed ages, are placed directly in the test solutions of 24 ppm. 6 days after introduction, samples are checked for mortality and special effects on the plant.

Myzus persicae [3] = assay: B1: Myzus persicae (green peach aphid), mixed population, sachet test; conditions: 144 h, 12.5 ppm test compound in 30% sucrose solution, parafilm sachet, 6 days after infestation, read-out: control of Myzus persicae (mortality, feeding activity)
Procedure: B1: Myzus persicae (green peach aphid) (mixed population, sachet test)
Each well of a 24-well microtiter plate is filled with 0.6 ml 30% sucrose solution, containing 12.5 ppm of the test compounds. For producing the sachets, the wells are covered with streched parafilm and infested with a mixed population of Myzus persicae. 6 days after the infestation, samples are checked for mortality (feeding activity).

Structure (SMILES) | mortality at 200 ppm (Myzus persicae [1]) | mortality at 24 ppm (Myzus persicae [2]) | mortality at 12.5 ppm (Myzus persicae [3])
NC1=NS(=O)(=O)c2c(Br)cccc21 [Compound P1.1, 7-bromo-1,1-dioxo-1H-1λ^6-benzo[d]isothiazol-3-ylamine] | ≥ 80% | ≥ 80% | –
CNC1=NS(=O)(=O)c2c(F)cccc21 [Compound P1.15, (7-Fluoro-1,1-dioxo-1H-1λ^6-benzo[d]isothiazol-3-yl)-methyl-amine] | ≥ 80% | ≥ 80% | –
CC(C)N1C(=N)c2cccc(Br)c2S1(=O)=O [Compound P2.1, 7-bromo-2-isopropyl-1,1-dioxo-1,2-dihydro-1λ^6-benzo[d]isothiazol-3-ylideneamine] | – | – | ≥ 80%
